Laboratory results taken from US10702537B2, “Devices and methods of treating methamphetamine addiction and medical and behavioral consequences of methamphetamine use and of HIV infection” (Board of Supervisors of Louisiana State University and …, priority 2015, dated 2020).
Entries after “also recorded” stand apart in the source; their conditions may differ. Where two headings read alike, the source gives them in different places.

Legend:
female Wistar rats = assay: methamphetamine drug discrimination; assay type: in vivo, rat; conditions: female Wistar rats trained to discriminate 1 mg/kg methamphetamine (IP) from saline; pretreatment; alprazolam 4 mg/kg IP at low doses 0.125 and 0.25 mg/kg methamphetamine; FIG. 2A
Protocol: (§1) Adult female Wistar rats were trained to discriminate 1 mg/kg methamphetamine (IP) from saline using food pellet reinforcement according to previously published procedures (Mantsch and Goeders, 1999, 1998). Pretreatment with alprazolam (4 mg/kg, IP) enhanced the methamphetamine discriminative stimulus at doses of 0.125 and 0.25 mg/kg methamphetamine. […] These observations have been confirmed using a conditioned place preference model as well, evidencing that benzodiazepines differentially modulate the rewarding and reinforcing properties of methamphetamine. […] Thus, this is an extraordinarily consistent pattern across three very different models of drug-related behaviors.

female rats [1] = assay: cocaine drug discrimination; assay type: in vivo, rat; conditions: pretreatment, FIG. 2B
male rats = assay: methamphetamine self-administration in male rats; assay type: in vivo, rat; conditions: for low dose methamphetamine self-administration: alprazolam 4 mg/kg IP, very low doses of methamphetamine, FIG. 3, 5A; for antagonism of oxazepam's effect on methamphetamine self-administration: standard dose methamphetamine
rats [2] = assay: methamphetamine drug-induced reinstatement (D-IR) study; assay type: in vivo, rat; conditions: FIG. 4
[3] = cocaine-related behaviors; conditions: in vivo
Protocol: Benzodiazepines affect cocaine and methamphetamine-related behaviors differently—The inventors' laboratory has long been interested in the role for benzodiazepines in drug addiction.
as §1

humans = conditions: Lile et al., cited from earlier work
[4] = system: drug-dependent individuals; conditions: cited from earlier work
TSPO [5] = molecular target: TSPO (Rattus norvegicus, UniProt P16257); assay: ex vivo homogenate binding, TSPO; conditions: structure-activity relationships, confirmed by ex vivo homogenate binding in rat brain tissue
GABAA receptor = assay: ex vivo homogenate binding, GABAA receptor; conditions: structure-activity relationships, confirmed by ex vivo homogenate binding in rat brain tissue
rats [6] = conditions: cited from earlier work
female rats [7] = assay: methamphetamine self-administration in female rats; assay type: in vivo, rat
From the text: Turning to FIGS. 6 and 7, the inventors tested the TSPO compound Ro5-4864 in an animal model of methamphetamine self-administration in male and female rats. […] The inventors compared these effects to the effects of the benzodiazepine alprazolam. […] The inventors also show preliminary data with Ro7-9277 with female rats.

[8] = humans, cited from earlier work
[9] = rats, intraperitoneal injection; cited from earlier work
TSPO [10] = conditions: cited from earlier work
TSPO mRNA = conditions: rats; 1.0 mg/kg IP twice per day for 2 weeks, withdrawn for 7 days; cited from earlier work
[11] = male rats trained at 0.06 mg/kg/infusion, pretreatment

Sequence of TSPO (Rattus norvegicus, UniProt P16257) (P16257 whole entry): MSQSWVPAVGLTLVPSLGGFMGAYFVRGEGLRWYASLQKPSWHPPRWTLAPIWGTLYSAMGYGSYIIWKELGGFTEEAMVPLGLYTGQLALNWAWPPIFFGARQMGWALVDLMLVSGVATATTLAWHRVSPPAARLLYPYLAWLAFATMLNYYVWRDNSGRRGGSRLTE

For `Cc1nnc2n1-c1ccc(Cl)cc1C(c1ccccc1)=NC2` [alprazolam, 8-chloro-1-methyl-5-phenyl-4H-(1,2,4)triazolo-1,4-benzodiazepine], the “methamphetamine discriminative stimulus effects” value (female Wistar rats) was “enhanced”, the “cocaine discriminative stimulus effects” value (female rats [1]) was “did not affect; also recorded: no effect” and the “low dose methamphetamine self-administration” value (male rats; [11]) was “enhanced; also recorded: significant increases”. For the same molecule, the “low dose methamphetamine-induced reinstatement” value (rats [2]; low-dose priming injection of methamphetamine) was “enhanced; also recorded: potentiated”, the cocaine-related behaviors [3] was “decrease; also recorded: reduce” and the “subjective effects of the methamphetamine high” value (humans; benzodiazepine given acutely at the same time as the stimulant) was “reduced”. The “desirability among benzodiazepines (abuse liability)” value [4] was “one of the most desired”, the “binding to the TSPO” value (TSPO [5]) was “low affinity” and the “binding to the GABAA receptor” value (GABAA receptor) was “binds selectively”.

In the case of `CCOC(=O)c1ncn2c1CN(C)C(=O)c1cc(F)ccc1-2` [flumazenil], the “antagonism of alprazolam's effect on low-dose methamphetamine self-administration” value (male rats; antagonist administered 30 minutes prior to alprazolam, FIG. 5A) is reported as “inhibited; also recorded: blocked” and the “antagonism of oxazepam's effect on methamphetamine self-administration” value (“antagonism of oxazepam's effect” below) (male rats; male rats, FIG. 5B) is reported as “partially blocked”.

In the case of `CC(=O)[C@H]1CC[C@H]2[C@@H]3CC[C@H]4C[C@H](O)CC[C@]4(C)[C@H]3CC[C@]12C` [Allopregnanolone], the cocaine-related responding (rats [6]; both genders) is listed as “decrease” and the methamphetamine-related responding (rats [6]; female rats) is listed as “decrease”.

In the case of `CCC(C)N(C)C(=O)c1cc2ccccc2c(-c2ccccc2Cl)n1` (stereo not shown) [PK11195], the “antagonism of oxazepam's effect” value (male rats; male rats, FIG. 5B) is reported as “partially blocked” and the “antagonism of oxazepam's effect” value (male rats; male rats, FIG. 5B, listed as PKII195) is reported as “blocked”.

With `O=C1Nc2ccc(Cl)cc2C(c2ccccc2)=NC1O` (stereo not shown) [oxazepam, 7-chloro-1,3-dihydro-3-hydroxy-5-phenyl-2H-1,4-benzodiazepin-2-one] the “methamphetamine discriminative stimulus effects” value (female Wistar rats) was “dose-dependently decreased”, the “cocaine discriminative stimulus effects” value (female rats [1]) was “dose-dependently decreased” and the “low dose methamphetamine self-administration” value (male rats; [11]) was “no effect”. For the same molecule, the “methamphetamine self-administration across all doses tested” value (male rats; male rats trained at 0.06 mg/kg/infusion, pretreatment, FIG. 3) was “decreased; also recorded: significant decreases”, the “standard dose methamphetamine self-administration” value (male rats; male rats, FIG. 5B) was “decreased” and the methamphetamine-induced reinstatement (rats [2]; all doses tested) was “decreased”. For the same molecule, the cocaine-related behaviors [3] was “decrease; also recorded: reduce”, the “subjective effects of d-amphetamine” value (humans; benzodiazepine given acutely at the same time as amphetamine) was “no significant effect” and the “desirability among benzodiazepines (abuse liability)” value [4] was “one of the least desirable”. For the same molecule, the “binding to the TSPO” value (TSPO [5]) was “binds” and the “binding to the GABAA receptor” value (GABAA receptor) was “binds”.

With `CN1C(=O)CN=C(c2ccc(Cl)cc2)c2cc(Cl)ccc21` [Ro5-4864, 4′,7-Dichloro-1,3-dihydro-1-methyl-5-phenyl-2H-1,4-benzodiazepin-2-one] the methamphetamine self-administration (male rats; male rats, FIG. 6) was “dose-related decrease”, the “sensitivity of female rats compared to male rats to the effect on methamphetamine self-administration” value (female rats [7]; FIG. 7 versus FIG. 6) was “significantly more sensitive” and the methamphetamine self-administration (female rats [7]; female rats, FIG. 7) was “dose-related decrease”.

For `CN[C@@H](C)Cc1ccccc1` [methamphetamine], the “Tmax of methamphetamine in blood” value ([8]; intranasal administration) is given as 2.82 ± 0.13 h, the “Tmax of methamphetamine in blood” value ([8]; intravenously administered) is given as 0.1 ± 0.183 h and the “Tmax of methamphetamine in blood” value ([8]; oral, range 180-300 min) is given as 3.6 h. The “Tmax of methamphetamine in blood” value ([8]; smoked) was 2.5 ± 0.5 h, the Tmax of methamphetamine [9] was 7.5 ± 2.8 min and the TSPO binding (TSPO [10]; self-administration of methamphetamine 0.3 mg/kg/inf) was “enhances”. For the same molecule, the “TSPO binding in the striatum, cerebellum and hippocampus” value (TSPO [10]; subchronic repeated doses 4×10 mg/kg SC every two hours, within 72 hours) was “increase” and the “TSPO mRNA” value (TSPO mRNA) was “enhances”.
